Laboratory results: paper PMC10451668, “Natural Acetogenins, Chatenaytrienins-1, -2, -3 and -4, Mitochondrial Potential Uncouplers and Autophagy Inducers—Promising Anticancer Agents” (Antioxidants, 2023)

Columns and labels:
Assay type in all cases: cell-based, human
[1] = Cytotoxicity assay (7-AAD viability, flow cytometry); conditions: human; Hek293, conditionally normal line; ± standard error of the mean, 95% CI in parenthesis
From the text: (§1) Cells, including Jurkat E6.1 (human leukemic T cell lymphoblasts, catalogue no. 88042803), K562 (human chronic myelogenous leukemia cells, catalogue no. 89121407), U937 (human histiocytic lymphoma cells, catalogue no. 85011440), HL60 (human promyelocytic leukemia cells, catalog no. 98070106), HEK293 (human embryonic kidney cells with adenovirus, catalog no. 85120602), and human lung fibroblasts Ce (catalogue no. 90011883), were purchased from the European Collection of Authenticated Cell Cultures (UK Health Security Agency) and cultured according to standard protocols using sterile techniques. […] Cells were maintained in RPMI 1640 (Jurkat, K562, U937, and HL60) and DME M (fibroblast and HEK293) (Gibco) supplemented with […] glutamine, 10% FBS (Sigma), and 100 units/mL penicillin-streptomycin (Sigma). All types of cells were grown under an atmosphere of 5% CO2 at 37 °C. The cells were subcultured at 2–3-day intervals. Cells were then seeded in 24-well plates at 5 × 10^4 cells per well and incubated overnight. Jurkat, K562, U937, HL60, HEK293, and fibroblast cells were subcultured at 2-day intervals with a seeding density of 1 × 10^5 cells per well in 24-well plates in RPMI with 10% FBS.
(§2) Viability (live/dead) assessment was performed by staining cells with 7-AAD (7-aminoactinomycin D; Biolegend). After treatment, cells were harvested, washed 1–2 times with phosphate-buffered saline (PBS), and centrifuged at 400× g for 5 min. Cell pellets were resuspended in 200 µL of flow cytometry staining buffer (PBS without Ca^2+ and Mg^2+, 2.5% FBS) and stained with […] of 7-AAD staining solution for 15 min at room temperature in the dark. Samples were assessed using the NovoCyte Penteon Flow Cytometer System (Agilent, 5301 Stevens Creek Blvd., Santa Clara, CA, USA). Detection of 7-AAD emission was collected through a 675/30 nm filter in the FL4 channel.

HL60 = assay: as above; conditions: Homo sapiens, HL-60, ± standard error of the mean, 95% CI in parenthesis
From the text: as §1, §2

Jurkat = assay: as above; conditions: Homo sapiens, ± standard error of the mean, 95% CI in parenthesis
From the text: as §1, §2

K562 = assay: as above; conditions: Homo sapiens, ± standard error of the mean, 95% CI in parenthesis
From the text: as §1, §2

U937 = assay: as above; conditions: Homo sapiens, U-937, ± standard error of the mean, 95% CI in parenthesis
From the text: as §1, §2

[2] = as above; conditions: human; normal fibroblasts; ± standard error of the mean, 95% CI in parenthesis
Jurkat cells [3] = assay: Detection of mitodamage: mitochondrial membrane potential and apoptosis (MitoSense Red, annexin V, 7-AAD); conditions: compound at CC50, 4 h
From the text: The use of reagents MitoSense Red, annexin V, and 7-AAD in the Millipore FlowCellect™ MitoDamage Kit allowed us to gain information on early, mid, and late apoptosis with one simple assay. […] After this time, the cells were dissociated using an accutase solution, stained, and analyzed using the NovoCyte Penteon Flow Cytometer System (Agilent, 5301 Stevens Creek Blvd., Santa Clara, CA, USA), according to the manufacturer’s protocols for the FlowCellect™ MitoDamage Kit and FlowCellect™ Oxidative Stress Characterization Kit (Merck).
Detection of mitochondrial potential dissipation using MitoSense Red, annexin V, and 7-AAD provided a simultaneous measurement of three important parameters of the cell state within the same cell sample: the state of the mitochondrial potential (Δψ), detected by the membrane-penetrating MitoSense Red dye; the expression of phosphatidylserine on the cell surface of apoptotic cells, assessed by the binding of annexin V to externalized phosphatidylserine; and the binding of 7-AAD to DNA in cells in the late stages of apoptosis. Multiparametric evaluation of these indicators of cell viability made it possible to determine the correlation and relationship between oxidation dissipation and phosphorylation with apoptosis.

Jurkat tumor cell line = assay: Assessment of cytochrome c loss (FlowCellect Cytochrome c Kit); conditions: compound at CC50, incubation 3 h, anti-cytochrome c-FITC
Protocol: Quantification of cytochrome c release from mitochondria in apoptotic cells was presented to detect the mitochondrial pathway of apoptosis in cells using flow cytometry with the FlowCellect™ Cytochrome c Kit (FCCH100110). For this, cells were treated with FITC-conjugated antibodies against cytochrome c and control anti-IgG1-FITC, together with the use of an optimized fixation procedure, permeabilization, and blocking buffer (Luminex®, USA). […] Jurkat cells were incubated for 4 h with the synthesized substances at a concentration corresponding to their 24-h CC50 in a culture plate and assessed using the NovoCyte Penteon Flow Cytometer System (Agilent, 5301 Stevens Creek Blvd., Santa Clara, CA, USA). The obtained data were processed using NovoExpress® software (ACEA).

Jurkat cells [4] = assay: Oxidative stress and early apoptosis (MitoSOX Red and annexin V, MitoStress Kit); conditions: compound at CC50, 4 h, MitoSOX Red and annexin V
From the text: Changes in the mitochondrial membrane potential (ΔΨ) in Jurkat cells induced by treatment with the synthesized compounds were detected using MitoSOX Red, a positively charged probe that accumulates rapidly in mitochondria and as such can be used to detect superoxide/ROS production within mitochondria using fluorometry, microscopy, or flow cytometry. Live cells induced a low level of MitoSOX Red fluorescence, while cells with scattered mitochondrial membrane potential caused much higher MitoSOX Red fluorescence. Annexin V is a dye commonly used to detect early signs of apoptosis. […] Thus, using two different dyes, MitoSOX Red and annexin V (CF488A), in the FlowCellect™ MitoStress Kit (FCCH100109), we analyzed the mitochondrial membrane potential dissipation and associated apoptosis in Jurkat cells in response to the synthesized chatenaytrienins.
Therefore, simultaneous detection of mitochondrial superoxide generation (detected by MitoSOX Red membrane-penetrating dye) and expression of phosphatidylserine on the cell surface of apoptotic cells (assessed by binding of annexin V) in the same cell sample provides an accurate evaluation of the ability of the test compound to initiate oxidative stress in cell culture and induce apoptosis.

Jurkat cells [5] = assay: Assessment of autophagy (anti-LC3/FITC, flow cytometry); conditions: 0.5 CC50, 48 h
From the text: Autophagy is involved in various physiological processes and its changes are associated with the pathogenesis of diseases such as neurodegenerative diseases, cardiovascular complications, cancer, and infectious diseases, as well as with physiological processes such as innate and specific immunity, pathogen clearance, lymphocyte selection, antigen presentation, and production of immunoglobulins. Therefore, the determination of LC3 protein inside autophagosomes without the cytosolic form of LC3-I at the stage of selective cell permeability was measured using flow cytometry. Thus, using the FlowCellect™ LC3-GFP Reporter Autophagy Assay Kit (FCCH100170 and FCCH100181), flow cytometry allowed for a rapid assay that could be combined with other phenotypic and functional markers to characterize different cell populations.
Canonical autophagy is associated with the conversion of LC3 protein (an autophagosome marker) from the cytoplasmic form of LC3I to the lipid-bound form of LC3II, which is associated with the membranes of maturing autophagosomes. The autophagy process can be conveniently classified into several stages. First, induction and translocation of the cytoplasmic LC3 protein occur due to the influence of external stimuli (adverse environmental influences)—the process is initiated by external/internal stimuli (for example, nutrient depletion or hypoxia). Then, the formation of autophagosomes begins, which are double-membrane vesicles that include the LC3 protein. This protein regulates the fusion of autophagosomes and lysosomes. It exists in two fractions—cytoplasmic LC3-I and LC3-II, isolated in the autophagosomal membrane. The LC3-II protein fraction was specified in our work, as its detection is a reliable indicator of the processes of autophagy in the cell.

Jurkat cells [6] = assay: Cell cycle analysis (propidium iodide, Guava Cell Cycle Reagent); conditions: compound at CC50, 48 h, control did not exceed 34.2%
Protocol: The cell cycle was analyzed by propidium iodide staining (Guava® Cell Cycle Reagent 4500-0220). […] The cell pellet was resuspended in 200 μL of flow cytometry staining buffer (PBS without Ca^2+ and Mg^2+, 2.5% FBS). Cells were then seeded in 24-well plates at a density of 15 × 10^5 cells per well, centrifuged at 450× g for 5 min, then fixed with ice-cold 70% ethanol for 24 h at 0 °C. Before staining with propidium iodide, cells were washed with PBS and incubated with 250 µL of cell cycle detection reagent (Millipore) for 40 min at 22 °C in the dark. Samples were analyzed using the NovoCyte Penteon Flow Cytometer System (Agilent, 5301 Stevens Creek Blvd., Santa Clara, CA, USA).

In the case of `CCCCCCCCCCCC/C=C\CC/C=C\CC/C=C\CCCCCCCCC1=C[C@H](C)OC1=O` [compound 2, chatenaytrienin-2], the CC50 [1] is reported as 630 ± 30 nM, the CC50 (HL60) is reported as 130 ± 20 nM and the CC50 (Jurkat) is reported as 120 ± 60 nM. For the same compound, the CC50 (K562) was 180 ± 50 nM, the CC50 (U937) was 120 ± 10 nM and the CC50 [2] was 790 ± 20 nM. The “cells in late apoptosis (stained with 7-AAD)” value (Jurkat cells [3]; Jurkat) was 8.44%, the “Jurkat tumor cells with the Δψ dissipation phenomenon” value (Jurkat cells [3]; MitoSense Red) was 67.76% and the “cells with cytochrome c released into the cytoplasm (Negative gate)” value (Jurkat tumor cell line) was 33.51%. For the same compound, the “cells demonstrating oxidative stress along with the marker of early apoptosis, annexin” value (Jurkat cells [4]) was 11.86%, the “cells with autophagy (gate M3-2)” value (Jurkat cells [5]) was 79.96% and the “percentage of cells in the S-phase” value (Jurkat cells [6]) was ~ 47%.
